{"source": "patent US11464448B2", "about": "“Innate metabolic imaging of cellular systems” (Memorial Sloan Kettering Cancer Center, priority 2016, dated 2022)", "key": {"[1]": {"tested_on": "orthotopic MycCaP prostate tumors", "assay": "Tumor volume by MRI in orthotopic MycCaP prostate model during iron chelation therapy", "assay_type": "in vivo, FVB/N mice", "details": "150 mg/kg, 5 days/week oral gavage; two weeks of gavage beginning one-week post-implantation at 100 mm^3; vs sham (H2O); n=10, p<0.05", "description": "(§1) Chelation of iron(III) has been proposed as a cancer treatment that causes reductions in tumor growth, presumably by reducing bioavailability of iron(III) to the cancer cells. However, no studies have addressed the possibility that chelation modulates TAM infiltration contributing to these anti-tumor effects. In order to investigate anti-tumor effects of iron chelation, FeMRI is used, as described herein, to monitor tumor growth in two mouse models. The faster growing MycCaP model and the slower growing TRAMP-C2 model were studied and contrasted to evaluate the effect of dose duration. Immune-competent, syngeneic murine FVB/N and C57BL/6 hosts underwent orthotopic prostatic injections of 5×10^4 cells (MycCaP and TRAMP-C2, respectively), and thereafter received either sham (H2O) or DFP (150 mg/kg, 5 days/week) by oral gavage until average primary tumor burden exceeded 1 cm^3 (determined by MM) in the treated group. […] At long dose durations (12 weeks) there was no growth of TRAMP-C2 orthotopic tumors implanted in syngeneic hosts (FIG. 3A, n=10, *p<0.001). […] (FIG. 3D, n=10, *p<0.05). […] Further, the ability to monitor TAM dynamics serially using FeMRI represents a technique that has translational use, bypassing the necessity for using invasive biopsy to obtain similar measures of stromal response to therapy."}, "[2]": {"tested_on": "high-[iron(III)] TAM clusters in MycCaP tumors", "assay": "FeMRI measurement of high-[iron(III)] TAM clusters in MycCaP tumors", "assay_type": "in vivo, FVB/N mice", "procedure": "TAM clusters was measured by FeMRI at each week of treatment as a function of percent infiltration in MycCaP tumors. […] These low-[iron(III)] and high-[iron(III)] populations were mapped by thresholding the tumor Fe[(III)] distribution in these ranges on the FeMRI. The low-[iron(III)] map consisted of dense pixel clusters distributed throughout the tumor, while the high-[iron(III)] map contained sparse clusters with average cluster size of approximately 4 MRI pixel^2≈0.05 mm^2 primarily at the outer tumor margins (n=10 mice). To quantify the extent of infiltration of these TAM clusters, an image-processing algorithm was developed in-house with Matlab and ImageJ. This tool is based on concentric rake sampling that identifies […] CD68^+ or high-[iron(III)] colonies and maps them as a function of % infiltration into the tumor (inset FIG. 2J, […] outer edge, 100% tumor center) for arbitrarily sized histological (FIG. 2J, left […]) regions of interest. […] Immune-competent, syngeneic murine FVB/N and C57BL/6 hosts underwent orthotopic prostatic injections of 5×10^4 cells (MycCaP and TRAMP-C2, respectively), and thereafter received either sham (H2O) or DFP (150 mg/kg, 5 days/week) by oral gavage until average primary tumor burden exceeded 1 cm^3 (determined by MM) in the treated group. […]"}, "[3]": {"tested_on": "high-iron(III)+ CD68+ TAMs in MycCaP tumors", "assay": "Whole slice histology (Prussian Blue iron(III), CD68) of TAM infiltration in MycCaP tumors", "assay_type": "in vivo, FVB/N mice", "description": "In order to further quantify these low- and high-[iron(III)] sub-populations, quantitative histology was used. […] In low-iron(III)^+ regions, prostate cancer cells were found sparsely studded with ferritin particles less than 1 μm^2 (at an approximate density of 1000 ferritin particles/field; no CD68^+ macrophages were observed (FIG. 2F, 2G n=18 fields, n=6 mice). In high-iron(III)^+ regions CD68^+ TAMs were found bearing dense hemosiderin deposits in groups of approximately 24 macrophages/TAM cluster (FIG. 2F, 2G, n=18 fields, n=6 mice). With these histological findings, it was possible to estimate the per-pixel TAM number in high-[iron(III)] MRI clusters at approximately 6 macrophages/pixel. To quantify the extent of infiltration of these TAM clusters, an image-processing algorithm was developed in-house with Matlab and ImageJ. […] Immune-competent, syngeneic murine FVB/N and C57BL/6 hosts underwent orthotopic prostatic injections of 5×10^4 cells (MycCaP and TRAMP-C2, respectively), and thereafter received either sham (H2O) or DFP (150 mg/kg, 5 days/week) by oral gavage until average primary tumor burden exceeded 1 cm^3 (determined by MM) in the treated group. […]"}, "[4]": {"tested_on": "orthotopic TRAMP-C2 prostate tumors", "assay": "Tumor volume by MRI in orthotopic TRAMP-C2 prostate model during iron chelation therapy", "assay_type": "in vivo, C57BL/6 mice", "details": "150 mg/kg, 5 days/week oral gavage; long dose duration (12 weeks); syngeneic hosts; n=10, p<0.001", "description": "as §1"}}}
{"smiles": "Cc1c(O)c(=O)ccn1C", "note": "[DFP, deferiprone]", "values": [{"measurement": "smaller tumor volumes by the endpoint of the study", "setting": "[1]", "result": 40, "unit": "%"}, {"measurement": "rates of TAM infiltration", "setting": "[2]; derived from changes of FeMRI infiltration profiles over time, n=10, p<0.05", "result": "reduced"}, {"measurement": "FeMRI measurements of TAMs", "setting": "[2]; over the full course of treatment", "result": "showed reductions"}, {"measurement": "histological TAM infiltration profile", "setting": "[3]; MycCaP tumor at week 3 of treatment, vs untreated group, p<0.05", "result": "less TAMs than the untreated group"}, {"measurement": "high-iron(III)+ and CD68+ positive cells (histological analysis)", "setting": "[3]; MycCaP tumors, 150 mg/kg oral gavage, data not shown", "result": "reduced"}, {"measurement": "tumor growth", "setting": "[4]", "result": "no growth"}]}
